From publication PMC2248166, “Quantitative peptide binding motifs for 19 human and mouse MHC class I molecules derived using positional scanning combinatorial peptide libraries” (Immunome Research, 2008)

Tests used:
HLA A*3001 = HLA A*3001 (Homo sapiens, UniProt P04439, D140H/D185E/E176W/F33S/G80R/H175R/K168Q/R138E/R41S); assay: biochemical; type: binding
HLA A*3201 = HLA A*3201 (Homo sapiens, UniProt P04439, A270S/D101S/D185E/E176V/E277Q/F133L/G103R/G107R/G231S/H175R/I121M/I218V/I322F/K168Q/L105A/L300P/L318F/M331R/P208A/P217A/Q94H/R106L/R138Q/S129P/T104I/T323A/T345S/V100E/V321M/V358M); assay: biochemical; type: binding
HLA A*6802 = HLA A*6802 (Homo sapiens, UniProt P04439, A269V/D140Y/D185E/E176V/E277Q/E87N/F33Y/G231S/I121R/I166T/I218V/L180W/L300P/L318F/N151K/P208A/P217A/Q86R/R138H/R169H/S129P/T345S/V36M); type: binding
HLA B*0702 = HLA B*0702 (Homo sapiens, UniProt P01889); type: binding; conditions: positional scanning combinatorial 9-mer library; normalized to 1.0 for the best residue at each position
HLA B*0801 = HLA B*0801 (Homo sapiens, UniProt P01889, A93T/A95T/D138N/E176V/E187T/K202T/Q94N/R180D/S35A/V36M/Y33D/Y91F); assay: biochemical; type: binding
HLA B*1501 = HLA B*1501 (Homo sapiens, UniProt P01889, A329T/A93T/A95T/C349S/D201E/D98Y/E187L/E204Q/E69M/E70A/K202T/N87E/Q94N/R155S/R180W/S121R/S35A/S48A/V306I/V36M/Y140S/Y91S); assay: biochemical; type: binding
HLA B*1503 = HLA B*1503 (Homo sapiens, UniProt P01889, A329T/A93T/A95T/C349S/D201E/D98Y/E187L/E204Q/K202T/N87E/Q94N/R155S/R180L/S121R/S35A/V306I/V36M/Y140S/Y91S); assay: biochemical; type: binding
HLA B*2705 = HLA B*2705 (Homo sapiens, UniProt P01889, D138H/D201E/E176V/E204Q/G107R/H137Y/K202T/N104T/N87E/Q56L/Q94K/R106L/R155S/R180L/S101D/S121N/S48T/Y140D/Y33H/Y91C); type: binding; conditions: positional scanning combinatorial 9-mer library; normalized to 1.0 for the best residue at each position
HLA B*3501 = HLA B*3501 (Homo sapiens, UniProt P01889, A329T/A93T/A95T/C349S/D201E/D98Y/E176V/E187L/E204Q/E69T/I218V/K202T/L119I/Q94N/R155S/R180L/S121R/S35A/S48A/T118I/V127L/V306I/V36M/Y140S/Y91F); type: binding
HLA B*5101 = HLA B*5101 (Homo sapiens, UniProt P01889, A329T/A93T/A95T/C349S/D138N/D201E/D98Y/E187L/E204Q/E69T/G107R/I218V/K202T/L105A/L119W/N104I/Q94N/R106L/R155S/R180L/S101N/S121T/S35A/S48A/V306I/V36M/Y195H/Y91F); type: binding
HLA B*5301 = HLA B*5301 (Homo sapiens, UniProt P01889, A329T/A93T/A95T/C349S/D201E/D98Y/E176V/E187L/E204Q/E69T/G107R/I218V/K202T/L105A/L119I/N104I/Q94N/R106L/R155S/R180L/S101N/S121R/S35A/S48A/T118I/V127L/V306I/V36M/Y140S/Y91F); type: binding
HLA B*5401 = HLA B*5401 (Homo sapiens, UniProt P01889, A329T/C349S/D138N/D201E/E176V/E187T/E204Q/E69G/I76V/K202T/L119W/R155S/R180L/S121T/S35A/S48A/V127L/V306I/V36M/Y140L); type: binding
HLA B*5801 = HLA B*5801 (Homo sapiens, UniProt P01889, A329T/C349S/D201E/D98Y/E176V/E187L/E204Q/E69T/G107R/I218V/I90N/K202T/L105A/L119I/N104I/N87E/Q89R/Q94S/R106L/R155S/R180L/R86G/S101N/S121R/S35A/S48A/T118I/V127L/V306I/V36M/Y140S/Y91M); type: binding
HLA B*5802 = HLA B*5802 (Homo sapiens, UniProt P01889, A329T/C349S/D201E/D98Y/E176V/E187L/E204Q/E69T/G107R/I218V/I90N/K202T/L105A/N104I/N87E/Q89R/Q94S/R106L/R155S/R180L/R86G/S101N/S121W/S35A/S48A/V127L/V306I/V36M/Y140S/Y91M); type: binding
H-2 D^b = H-2 D^b (Mus musculus, UniProt P01899); type: binding
H-2 D^d = H-2 D^d (Mus musculus, UniProt P01900); type: binding
H-2 K^k = H-2 K^k (Mus musculus, UniProt P04223); type: binding
HLA A*0201 = HLA A*0201 (Homo sapiens, UniProt P04439, D140Y/D185E/D98H/E176V/E277Q/G131W/G231S/I119V/I121R/I166T/I218V/L300P/L318F/N151K/N90K/P208A/P217A/Q86G/Q94H/R138H/R169H/T345S); conditions: positional scanning combinatorial 9-mer library; normalized to 1.0 for the best residue at each position

Chain of H-2 D^d (P01900 whole entry, looked up): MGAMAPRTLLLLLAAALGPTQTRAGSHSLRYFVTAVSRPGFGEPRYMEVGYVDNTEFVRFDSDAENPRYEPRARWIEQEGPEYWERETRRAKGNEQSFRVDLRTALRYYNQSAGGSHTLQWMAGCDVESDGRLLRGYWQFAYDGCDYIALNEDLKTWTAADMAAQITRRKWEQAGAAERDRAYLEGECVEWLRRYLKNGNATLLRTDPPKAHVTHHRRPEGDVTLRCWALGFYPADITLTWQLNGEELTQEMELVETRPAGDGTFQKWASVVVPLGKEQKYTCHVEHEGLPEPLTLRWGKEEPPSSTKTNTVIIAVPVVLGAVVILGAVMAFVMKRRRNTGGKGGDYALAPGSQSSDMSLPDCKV
Chain of H-2 K^k (P01887 21-119): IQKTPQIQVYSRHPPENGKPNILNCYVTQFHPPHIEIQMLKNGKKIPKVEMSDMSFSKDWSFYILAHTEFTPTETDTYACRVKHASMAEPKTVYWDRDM
Chain of H-2 K^k (P04223 22-369): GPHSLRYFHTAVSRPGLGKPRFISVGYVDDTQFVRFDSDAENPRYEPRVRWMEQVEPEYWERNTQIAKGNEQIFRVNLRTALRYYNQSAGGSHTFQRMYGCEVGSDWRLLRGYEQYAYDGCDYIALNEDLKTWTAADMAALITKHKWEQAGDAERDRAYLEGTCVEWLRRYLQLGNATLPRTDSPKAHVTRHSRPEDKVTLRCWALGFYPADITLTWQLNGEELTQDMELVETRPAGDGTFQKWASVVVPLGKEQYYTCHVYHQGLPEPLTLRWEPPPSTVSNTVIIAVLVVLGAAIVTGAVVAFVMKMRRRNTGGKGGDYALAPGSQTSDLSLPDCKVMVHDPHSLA
Chain of H-2 D^b (P01887 21-119): as the sequence (P01887 21-119) above
Chain of H-2 D^b (P01899 25-362): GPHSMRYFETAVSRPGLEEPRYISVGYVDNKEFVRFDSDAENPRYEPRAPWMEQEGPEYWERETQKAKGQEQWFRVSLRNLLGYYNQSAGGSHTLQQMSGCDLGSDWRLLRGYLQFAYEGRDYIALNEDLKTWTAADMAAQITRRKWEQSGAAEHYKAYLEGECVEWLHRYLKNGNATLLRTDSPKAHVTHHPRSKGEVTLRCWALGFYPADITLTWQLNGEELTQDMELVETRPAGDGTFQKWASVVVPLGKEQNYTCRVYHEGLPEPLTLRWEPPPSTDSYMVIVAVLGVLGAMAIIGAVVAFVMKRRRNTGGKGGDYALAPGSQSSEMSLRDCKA

Row | Sequence | Normalized average relative binding affinity (ARB), HLA A*3001 (HLA A*3001) | Normalized average relative binding affinity (ARB), HLA A*3201 (HLA A*3201) | Normalized average relative binding affinity (ARB), HLA A*6802 (HLA A*6802) | Normalized average relative binding affinity (ARB), HLA B*0702 (HLA B*0702) | Normalized average relative binding affinity (ARB), HLA B*0801 (HLA B*0801) | Normalized average relative binding affinity (ARB), HLA B*1501 (HLA B*1501) | Normalized average relative binding affinity (ARB), HLA B*1503 (HLA B*1503) | Normalized average relative binding affinity (ARB), HLA B*2705 (HLA B*2705) | Normalized average relative binding affinity (ARB), HLA B*3501 (HLA B*3501) | Normalized average relative binding affinity (ARB), HLA B*5101 (HLA B*5101) | Normalized average relative binding affinity (ARB), HLA B*5301 (HLA B*5301) | Normalized average relative binding affinity (ARB), HLA B*5401 (HLA B*5401) | Normalized average relative binding affinity (ARB), HLA B*5801 (HLA B*5801) | Normalized average relative binding affinity (ARB), HLA B*5802 (HLA B*5802) | Normalized average relative binding affinity (ARB), H-2 Db (H-2 D^b) | Normalized average relative binding affinity (ARB), H-2 Dd (H-2 D^d) | Normalized average relative binding affinity (ARB), H-2 Kk (H-2 K^k) | Normalized average relative binding affinity (ARB), HLA A*0201 (HLA A*0201)
1 | TXXXXXXXX [3064.0017] | 0.050 | 0.11 | 0.29 | 0.12 | 0.076 | 0.13 | 0.14 | 0.12 | 0.14 | 0.089 | 0.027 | 0.026 | 0.12 | 0.062 | 0.096 | 0.25 | 0.65 | 0.094
2 | VXXXXXXXX [3064.0018] | 0.074 | 0.28 | 0.038 | 0.14 | 0.047 | 0.14 | 0.22 | 0.16 | 0.11 | 0.17 | 0.018 | 0.032 | 0.74 | 0.21 | 0.094 | 0.80 | 0.13 | 0.062
3 | WXXXXXXXX [3064.0019] | 0.020 | 0.059 | 0.19 | 0.25 | 0.20 | 0.44 | 0.27 | 0.41 | 0.23 | 0.11 | 0.17 | 0.14 | 0.29 | 0.11 | 0.16 | 1.0 | 0.80 | 0.057
4 | XAXXXXXXX [3064.0021] | 0.89 | 0.11 | 0.12 | 0.086 | 0.41 | 0.57 | 0.13 | 0.0054 | 0.88 | 0.54 | 0.44 | 1.0 | 0.48 | 0.035 | 0.64 | 0.025 | 0.047 | 0.0018
